Measurements: patent publication US20090304813A1, “VIRUCIDAL COMPOSITIONS AND USES” (priority 2006, published 2009)

Key:
[1] = Tox controls of the oral treatment study in mice (Table 3); details: 75 mg/kg/day p.o., bid × 5 beg −4 h; initial weight vs 18 h after final treatment
[2] = tested on: Influenza A/Duck/MN/1525/81 (H5N1); parameters: species or system BALB/c mice; details: mouse, in vivo

| SMILES | Tox Controls Mean Host Weight Change [1] | Number of surviving mice per group at day 19 [2] | surviving mice per group at day 19, percent [2] |
| --- | --- | --- | --- |
| NC(=O)c1ncn([C@@H]2O[C@H](CO)[C@@H](O)[C@H]2O)n1 [Ribavirin] | -0.8 g | – | – |
| CCOC(=O)C1=C[C@@H](OC(CC)CC)[C@H](NC(C)=O)[C@@H](N)C1 [Tamiflu ™, oseltamivir phosphate] | – | 10/10 [100%] | 10/10 [100%] |
